Reference: patent US12319672B2, “Alpha-D-galactopyranoside derivatives” (Idorsia Pharmaceuticals Ltd, priority 2019, dated 2025)

Key:
human Gal-3 (hGal-3) = human Gal-3 (hGal-3) (Homo sapiens (Human), UniProt P17931); assay: Competitive binding assay: binding of biotinylated hGal-3 to microplate-adsorbed asialofetuin (ASF); details: Activity on hGal-3; mean values of several measurements
How it was run: (§1)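 Compounds diluted in DMSO competed with biotinylated hGal-3 or hGal-1 (300-1000 ng/mL) for binding to plate-adsorbed asialofetuin for 3 h at 4° C. Bound galectin was detected with streptavidin-peroxidase (80 ng/mL, 1 h, 4° C) and ABTS substrate; IC50 reported as mean of several measurements.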

human Gal-1 (hGal-1) = assay: Competitive binding assay: binding of biotinylated hGal-1 to microplate-adsorbed asialofetuin (ASF); details: Activities on hGal-1; mean values of several measurements
How it was run: as §1

human Gal-3 (hGal-3), sequence (P17931 whole entry): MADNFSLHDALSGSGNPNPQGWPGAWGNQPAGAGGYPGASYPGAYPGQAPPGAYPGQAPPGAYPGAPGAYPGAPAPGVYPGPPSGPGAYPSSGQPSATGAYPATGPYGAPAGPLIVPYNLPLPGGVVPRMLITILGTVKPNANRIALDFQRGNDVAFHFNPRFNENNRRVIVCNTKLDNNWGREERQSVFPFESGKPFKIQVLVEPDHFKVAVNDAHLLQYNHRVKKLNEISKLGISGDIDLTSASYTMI
human Gal-1 (hGal-1), sequence (P09382 2-135 limits assumed): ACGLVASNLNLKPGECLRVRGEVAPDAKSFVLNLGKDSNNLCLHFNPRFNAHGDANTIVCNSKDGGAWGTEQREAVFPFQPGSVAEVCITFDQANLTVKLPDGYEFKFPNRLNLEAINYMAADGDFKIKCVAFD

| SMILES | IC50 (human Gal-3 (hGal-3)) [nM] | IC50 (human Gal-1 (hGal-1)) [nM] |
| --- | --- | --- |
| CO[C@@H]1[C@@H](n2cc(-c3cc(F)c(F)c(F)c3)nn2)[C@@H](O)[C@@H](CO)O[C@@H]1Cn1cc(C2CCN(S(=O)(=O)c3ccc(C)cc3)CC2)nn1 [Example 4.23, (2R,3R,4S,5R,6R)-2-(hydroxymethyl)-5-methoxy-6-((4-(1-tosylpiperidin-4-yl)-1H-1,2,3-triazol-1-yl)methyl)-4-(4-(3,4,5-trifluorophenyl)-1H-1,2,3-triazol-1-yl)tetrahydro-2H-pyran-3-ol] | 38 | 1230 |
| CC(=O)N1CCC(C2CC(C[C@H]3O[C@H](CO)[C@H](O)[C@H](n4cc(-c5cc(F)c(F)c(F)c5)nn4)[C@H]3O)=NO2)CC1 (mixture of isomers) [Example 3.18, 1-(4-((RS)-3-(((2R,3R,4R,5R,6R)-3,5-dihydroxy-6-(hydroxymethyl)-4-(4-(3,4,5-trifluorophenyl)-1H-1,2,3-triazol-1-yl)tetrahydro-2H-pyran-2-yl)methyl)-4,5-dihydroisoxazol-5-yl)piperidin-1-yl)ethan-1-one] | 180 | 2220 |
| CO[C@@H]1[C@@H](n2cc(-c3cc(F)c(F)c(F)c3)nn2)[C@@H](O)[C@@H](CO)O[C@@H]1CC1CC(c2ccncc2)=NO1 (stereo partly shown) [Ex 1.17] | 700 | 8790 |
| CCOC(=O)N1CCC(c2cc(C[C@H]3O[C@H](CO)[C@H](O)[C@H](n4cc(-c5ccc(C)c(F)c5F)nn4)[C@H]3OC)no2)CC1 [Ex 1.151] | 19 | 1020 |
| CCOC(C)(C)c1cc(C[C@H]2O[C@H](CO)[C@H](O)[C@H](n3cc(-c4ccc(C)c(F)c4F)nn3)[C@H]2OC)on1 [Ex 1.327] | 76 | 4170 |
| CO[C@@H]1[C@@H](n2cc(-c3cc(F)c(F)c(F)c3)nn2)[C@@H](O)[C@@H](CO)O[C@@H]1CC1CN(C2CCN(S(=O)(=O)C(C)(C)C)CC2)C(=O)O1 (mixture of isomers) [Example 5.22, (RS)-3-(1-(tert-butylsulfonyl)piperidin-4-yl)-5-(((2R,3R,4S,5R,6R)-5-hydroxy-6-(hydroxymethyl)-3-methoxy-4-(4-(3,4,5-trifluorophenyl)-1H-1,2,3-triazol-1-yl)tetrahydro-2H-pyran-2-yl)methyl)oxazolidin-2-one] | 67 | 760 |
| CO[C@@H]1[C@@H](n2cc(-c3cccc(F)c3F)nn2)[C@@H](O)[C@@H](CO)O[C@@H]1CC1CC(C2CCN(C(=O)OC(C)(C)C)CC2)=NO1 (stereo partly shown) [Ex 1.329] | 69 | 440 |
| CO[C@@H]1[C@@H](n2cc(-c3ccc(C)c(F)c3F)nn2)[C@@H](O)[C@@H](CO)O[C@@H]1Cc1cn(C(C)(C)C)nn1 [Example 4.52, (2R,3R,4S,5R,6R)-6-((1-(tert-butyl)-1H-1,2,3-triazol-4-yl)methyl)-4-(4-(2,3-difluoro-4-methylphenyl)-1H-1,2,3-triazol-1-yl)-2-(hydroxymethyl)-5-methoxytetrahydro-2H-pyran-3-ol] | 53 | 730 |
| CO[C@@H]1[C@@H](n2cc(-c3cc(F)c(F)c(F)c3)nn2)[C@@H](O)[C@@H](CO)O[C@@H]1Cn1cc(C2CCN(C(=O)OCc3ccccc3)CC2)nn1 [Example 4.20, benzyl 4-(1-(((2R,3R,4S,5R,6R)-5-hydroxy-6-(hydroxymethyl)-3-methoxy-4-(4-(3,4,5-trifluorophenyl)-1H-1,2,3-triazol-1-yl)tetrahydro-2H-pyran-2-yl)methyl)-1H-1,2,3-triazol-4-yl)piperidine-1-carboxylate] | 21 | 520 |
| CO[C@@H]1[C@@H](n2cc(-c3ccc(F)c(F)c3F)nn2)[C@@H](O)[C@@H](CO)O[C@@H]1CC1CC(C2CCN(C(=O)OC(C)(C)C)CC2)=NO1 (stereo partly shown) [Ex 1.143] | 100 | 190 |
| Cc1ccc(-c2cn([C@H]3[C@@H](O)[C@@H](CO)O[C@H](Cc4cc(C5(C)CC5)no4)[C@@H]3O)nn2)c(F)c1F [Ex 1.333] | 10 | 6990 |
| CO[C@@H]1[C@@H](n2cc(-c3cc(F)c(F)c(F)c3)nn2)[C@@H](O)[C@@H](CO)O[C@@H]1C[C@@H]1CC(C2CCN(S(=O)(=O)C(C)C)CC2)=NO1 [Example 3.61, (2R,3R,4S,5R,6R)-2-(hydroxymethyl)-6-(((S)-3-(1-(isopropylsulfonyl)piperidin-4-yl)-4,5-dihydroisoxazol-5-yl)methyl)-5-methoxy-4-(4-(3,4,5-trifluorophenyl)-1H-1,2,3-triazol-1-yl)tetrahydro-2H-pyran-3-ol] | 72 | 1120 |
| CN1CCC(C2=NOC(C[C@H]3O[C@H](CO)[C@H](O)[C@H](n4cc(-c5cc(F)c(F)c(F)c5)nn4)[C@H]3O)C2)CC1 (mixture of isomers) [Example 3.02, (2R,3R,4R,5R,6R)-2-(hydroxymethyl)-6-(((RS)-3-(1-methylpiperidin-4-yl)-4,5-dihydroisoxazol-5-yl)methyl)-4-(4-(3,4,5-trifluorophenyl)-1H-1,2,3-triazol-1-yl)tetrahydro-2H-pyran-3,5-diol] | 340 | 4620 |
| CO[C@@H]1[C@@H](n2cc(-c3ccc(C)c(F)c3F)nn2)[C@@H](O)[C@@H](CO)O[C@@H]1Cc1cc(C2CCC(=O)N(C)CC2)no1 (stereo partly shown) [Ex 1.345] | 44 | 720 |
| CO[C@@H]1[C@@H](n2cc(-c3cc(F)c(F)c(F)c3)nn2)[C@@H](O)[C@@H](CO)O[C@@H]1C[C@H]1CC(c2ccc3[nH]c(=O)oc3c2)=NO1 [Ex 1.29] | 2140 | > 100000 |
| CO[C@@H]1[C@@H](n2cc(-c3ccc(C)c(F)c3F)nn2)[C@@H](O)[C@@H](CO)O[C@@H]1Cc1cc(C(C)(CO)CCl)no1 (stereo partly shown) [Ex 1.263] | 58 | 1030 |
| CC(C)(C)OC(=O)N1CCC(C2=NOC(C[C@H]3O[C@H](CO)[C@H](O)[C@H](n4cc(-c5c(F)cccc5F)nn4)[C@H]3O)C2)CC1 (stereo partly shown) [Ex 1.298] | 2500 | 990 |
| CC(C)(C)OC(=O)N1CCC(C2=NOC(C[C@H]3O[C@H](CO)[C@H](O)[C@H](n4cc(-c5ccc6ncsc6c5)nn4)[C@H]3O)C2)CC1 (stereo partly shown) [Ex 1.98] | 1560 | 1840 |

The remaining lines, values ahead:

| IC50 (human Gal-3 (hGal-3)) [nM] | IC50 (human Gal-1 (hGal-1)) [nM] | SMILES |
| --- | --- | --- |
| 160 | 1600 | CO[C@@H]1[C@@H](n2cc(-c3cc(F)c(F)c(F)c3)nn2)[C@@H](O)[C@@H](CO)O[C@@H]1Cn1cc(C2(C)CCOCC2)nn1 [Example 4.51, (2R,3R,4S,5R,6R)-2-(hydroxymethyl)-5-methoxy-6-((4-(4-methyltetrahydro-2H-pyran-4-yl)-1H-1,2,3-triazol-1-yl)methyl)-4-(4-(3,4,5-trifluorophenyl)-1H-1,2,3-triazol-1-yl)tetrahydro-2H-pyran-3-ol] |
| 260 | 18100 | CO[C@@H]1[C@@H](n2cc(-c3cc(F)c(F)c(F)c3)nn2)[C@@H](O)[C@@H](CO)O[C@@H]1Cc1cc(C23CCC(NC(=O)OC(C)(C)C)(CC2)CC3)on1 [Ex 1.130] |
| 180 | 3510 | CO[C@@H]1[C@@H](n2cc(-c3cc(F)c(Cl)c(F)c3)nn2)[C@@H](O)[C@@H](CO)O[C@@H]1Cc1cc(C(C)(C)C)on1 [Ex 1.194] |
| 200 | 4490 | OC[C@H]1O[C@H](Cc2cc(C3CCNCC3)on2)[C@H](OCC(F)F)[C@@H](n2cc(-c3cc(F)c(F)c(F)c3)nn2)[C@H]1O [Example 2.26, (2R,3R,4S,5R,6R)-5-(2,2-difluoroethoxy)-2-(hydroxymethyl)-6-((5-(piperidin-4-yl)isoxazol-3-yl)methyl)-4-(4-(3,4,5-trifluorophenyl)-1H-1,2,3-triazol-1-yl)tetrahydro-2H-pyran-3-ol] |
| 340 | 2490 | CO[C@@H]1[C@@H](n2cc(-c3cc(F)c(F)c(F)c3)nn2)[C@@H](O)[C@@H](CO)O[C@@H]1Cn1cc(C2(O)CCCC2)nn1 [Example 4.41, (2R,3R,4S,5R,6R)-6-((4-(1-hydroxycyclopentyl)-1H-1,2,3-triazol-1-yl)methyl)-2-(hydroxymethyl)-5-methoxy-4-(4-(3,4,5-trifluorophenyl)-1H-1,2,3-triazol-1-yl)tetrahydro-2H-pyran-3-ol] |
| 35 | 570 | CCOC(=O)N1CCC(c2cc(C[C@H]3O[C@H](CO)[C@H](O)[C@H](n4cc(-c5cc(F)c(F)c(Cl)c5)nn4)[C@H]3OC)no2)CC1 [Ex 1.220] |
| 57 | 2870 | CO[C@@H]1[C@@H](n2cc(-c3ccc(C)c(F)c3F)nn2)[C@@H](O)[C@@H](CO)O[C@@H]1Cc1cc(C2(O)CCCC2)no1 [Ex 1.326] |
| 61 | 1870 | CO[C@@H]1[C@@H](n2cc(-c3cc(F)c(F)c(F)c3)nn2)[C@@H](O)[C@@H](CO)O[C@@H]1Cc1cc(C2CCN(S(=O)(=O)N(C)C)CC2)on1 [Example 3.58, 4-(3-(((2R,3R,4S,5R,6R)-5-hydroxy-6-(hydroxymethyl)-3-methoxy-4-(4-(3,4,5-trifluorophenyl)-1H-1,2,3-triazol-1-yl)tetrahydro-2H-pyran-2-yl)methyl)isoxazol-5-yl)-N,N-dimethylpiperidine-1-sulfonamide] |
| 260 | 3660 | CO[C@@H]1[C@@H](n2cc(-c3cc(F)c(F)c(F)c3)nn2)[C@@H](O)[C@@H](CO)O[C@@H]1Cc1cc(C2(OC)CCCC2)no1 [Ex 1.209] |
| 130 | 2940 | CO[C@@H]1[C@@H](n2cc(-c3cc(F)c(F)c(F)c3)nn2)[C@@H](O)[C@@H](CO)O[C@@H]1Cc1cc(C2(CC#N)CC2)no1 [Ex 1.313] |
| 260 | 310 | CO[C@@H]1[C@@H](n2cc(-c3cc(F)c(F)c(F)c3)nn2)[C@@H](O)[C@@H](CO)O[C@@H]1C[C@@H]1CC(c2cc[nH]c(=O)c2)=NO1 [Example 2.07a, 4-((S)-5-(((2R,3R,4S,5R,6R)-5-hydroxy-6-(hydroxymethyl)-3-methoxy-4-(4-(3,4,5-trifluorophenyl)-1H-1,2,3-triazol-1-yl)tetrahydro-2H-pyran-2-yl)methyl)-4,5-dihydroisoxazol-3-yl)pyridin-2(1H)-one] |
